{"source": "patent US20220211667A1", "about": "“COMPOSITION FOR THE INTRAPERITONEAL TREATMENT OF SECONDARY BACTERIAL PERITONITIS WITH REDUCTION OF COMPLICATIONS” (priority 2019, published 2022)", "origin": "cited, not measured here", "key": {"[1]": {"conditions": "intraperitoneal; third and last day of treatment"}, "[2]": {"assay": "not given", "remark": "listed apart in the source"}, "[3]": {"system": "polymorphonuclear leukocytes"}, "[4]": {"system": "resistant bacterial strains", "conditions": "overall; controlled clinical trials, oral or intravenous"}, "[5]": {"system": "strains of organisms from the susceptible genera"}, "[6]": {"system": "Pseudomonas aeruginosa", "conditions": "maximum, for Pseudomonas aeruginosa; controlled clinical trials, oral or intravenous"}}}
{"compound": "C[C@@H]1O[C@@H]1P(=O)(O)O.NC(CO)(CO)CO", "note": "[Fosfomycin trometamol]", "values": [{"measurement": "solubility in water", "result": "highly soluble in water"}, {"measurement": "pH of 5% solution", "result": "3.5-5.5"}]}
{"compound": "C[C@@H]1O[C@@H]1P(=O)(O)O", "note": "[Fosfomycin disodium]", "values": [{"measurement": "solubility in water", "result": "highly soluble in water"}, {"measurement": "pH of 5% solution", "result": "9.0-10.5"}]}
{"compound": "GM-CSF: cytokine of the colony-stimulating factor family; mature human protein of 127 amino-acid residues, SEQ ID NO: 1", "values": [{"measurement": "patients with minor flu-like symptoms", "setting": "[1]", "result": "2 of 8"}]}
{"compound": "C[C@@H]1O[C@@H]1P(=O)(O)O", "note": "[fosfomycin, [(2R,3S)-3-methyloxiran-2-yl]phosphonic acid]", "values": [{"measurement": "eosinophilia", "setting": "[2]; evidence of allergy", "result": 0.2, "unit": "%"}, {"measurement": "transient rashes", "setting": "[2]; evidence of allergy", "result": "0.3 % of cases"}, {"measurement": "transiently raised liver enzymes", "setting": "[2]; in vivo", "result": "0.3 % of cases"}, {"measurement": "concentration in polymorphonuclear leukocytes relative to extracellular fluid", "setting": "[3]", "result": "twice those of the extracellular fluid"}, {"measurement": "appearance of resistant bacterial strains", "setting": "[4]", "result": 3.0, "unit": "%"}, {"measurement": "tested strains showing synergistic effect", "setting": "[5]; early studies, various antibiotic combinations", "result": "70-100%"}, {"measurement": "synergy rates", "setting": "[5]; subsequent more extensive studies", "result": "36-74%"}, {"measurement": "appearance of resistant bacterial strains", "setting": "[6]", "result": 15, "unit": "%"}]}
